Reference: patent US7476681B2, “17β-hydroxysteroid dehydrogenase type 3 inhibitors for the treatment of androgen dependent diseases” (Schering Corporation, priority 2002, dated 2009)

melting point: 90 to 92 °C
SMILES: CC(=O)NCCN(C(=O)N1CCN(C(c2ccccc2)c2ccccc2)C[C@@H]1C(C)C)C1CCN(C(C)=O)CC1 [Example 16]
